Data published in PubChem BioAssay (NCI).
Where “and” joins values, the source holds several entries; their conditions need not be identical. Equal entries are not always repeated.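 Growth conditions: 96-well plates. Treatment: test compound, 48 hours, 5 concentrations. Analysis: linear interpolation between bracketing concentrations; unreached endpoints set to highest concentration. At the GI50, growth is halved. The concentration for full growth arrest is given as TGI.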

Tests used:
Experiment in all cases: NCI-60 cell line screen, 48 h
ACHN renal = test system: ACHN renal
HS 578T breast = test system: HS 578T breast
MALME-3M melanoma = test system: MALME-3M melanoma
MDA-MB-231 breast = test system: MDA-MB-231 breast
PC-3 prostate = test system: PC-3 prostate
RPMI-8226 leukemia = test system: RPMI-8226 leukemia
SF-295 CNS = test system: SF-295 CNS
SF-539 CNS = test system: SF-539 CNS
SK-MEL-5 melanoma = test system: SK-MEL-5 melanoma
SNB-19 CNS = test system: SNB-19 CNS

Compound | GI50 (ACHN renal) [µM] | TGI (ACHN renal) | GI50 (HS 578T breast) [µM] | TGI (HS 578T breast) | GI50 (MALME-3M melanoma) [µM] | TGI (MALME-3M melanoma) | GI50 (MDA-MB-231 breast) [µM] | TGI (MDA-MB-231 breast) | GI50 (PC-3 prostate) [µM] | TGI (PC-3 prostate) | GI50 (RPMI-8226 leukemia) [µM] | TGI (RPMI-8226 leukemia) | GI50 (SF-295 CNS) [µM] | TGI (SF-295 CNS) | GI50 (SF-539 CNS) [µM] | TGI (SF-539 CNS) | GI50 (SK-MEL-5 melanoma) [µM] | TGI (SK-MEL-5 melanoma) | GI50 (SNB-19 CNS) [µM] | TGI (SNB-19 CNS)
CC(=O)c1ccc2c(c1)N(CCCN1CCN(CCO)CC1)c1ccccc1S2 | 2.98 | 11.4 µM | 1.66 | 4.52 µM | 1.75 | 3.62 µM | 1.96 | 4.51 µM | 2.4 | 9.35 µM | 2.4 | 8.75 µM | 2.15 | 4.26 µM | 1.73 | 3.55 µM | 1.72 | 3.14 µM | 2.44 | 6.97 µM
CN(C)N1C(=O)SCC(c2ccccc2)(c2ccccc2)C1=O |  | > 100 µM |  | > 100 µM |  | > 100 µM |  | > 100 µM |  | > 100 µM |  | > 100 µM |  | > 100 µM |  | > 100 µM |  | > 100 µM |  | > 100 µM
CC(/C=C/C(O)=C1/C(=O)CNC1=O)=C\[C@@H](C)[C@H]1O[C@@]2(C)O[C@H](C(=O)[C@@H]3O[C@@]32C)[C@@H]1C |  | 41.9 µM |  | 52.1 µM |  | 38 µM |  | 38.1 µM |  | 31.8 µM |  | 35.9 µM |  |  |  | 40 µM |  | 40.4 µM |  | 55.4 µM
Cn1c(=O)n(C)c2cc(CNCCNc3ccnc4cc(Cl)ccc34)ccc21 | 25.4 | 93.4 µM | 23.8 | 95 µM | 16.6 | 32.9 µM | 11.2 | 45.2 µM | 34.6 | > 100 µM | 20.9 | 65.6 µM | 15.3 | 40.1 µM | 14.7 | 29.4 µM | 16.5 | 30.3 µM | 27.9 | > 100 µM
C=CC(C)(C)n1cc(C2=C(O)C(=O)C(c3cn(C(C)(C)C=C)c4ccccc34)=C(O)C2=O)c2ccccc21 |  | 12.9 µM |  | 5.11 µM |  | 11.1 µM |  | 8.27 µM |  | 7.13 µM |  | 40.2 µM |  | 12.8 µM |  | 4.11 µM |  | 4.88 µM |  | 7.38 µM
C/C(=C(/c1ccccc1)c1ccc(OCC(O)CNCCN2CCOCC2)cc1)c1ccccc1 (configuration not stated) | 3.31 | 11.7 µM | 1.77 | 4.1 µM | 1.62 | 3.04 µM | 1.78 | 3.83 µM | 2.78 | 10.2 µM |  |  | 1.92 | 3.63 µM | 1.63 | 2.99 µM | 1.77 | 3.19 µM | 4.77 | 17.8 µM
CCCc1nc(Cl)nc(Cl)c1Cl |  | 1.62 µM |  | 8.46 µM |  | 2.46 µM |  | 2.07 µM |  | 1.6 µM |  |  |  | 6.89 µM |  | 2.94 µM |  | 3.21 µM |  | 2.57 µM
CC(C)(C)[Si](C)(C)OC1[C@@H](CNC(N)=O)O[C@@H](n2cnc3c(NC(=O)Nc4ccccc4)ncnc32)[C@H]1O[Si](C)(C)C(C)(C)C (some centres not stated) | 2.42 | 8.62 µM | 1.17 | 3.02 µM | 5.19 | 12.5 µM | 5.49 | 12 µM | 0.814 | 1.99 µM | 1.12 | 2.63 µM | 2.04 | 7.9 µM | 6.73 | 13.6 µM | 6.82 | 13.5 µM | 5.7 | 12.4 µM
COc1ccc(C(=O)c2sc3nc(-c4ccccc4OC)ccc3c2N)cc1OC | 7.24 | > 100 µM | 4.26 | 74.2 µM | 3.65 | > 100 µM | 3.44 | 42.3 µM | 2.84 | 35.1 µM | 2.7 | > 100 µM | 4.37 | 54.3 µM | 20 | > 100 µM | 2.05 | 5.68 µM | 22.8 | > 100 µM
CCCCCCNCCCNc1c2cc(OC)ccc2nc2cccc([N+](=O)[O-])c12 | 0.159 | 1.54 µM and 0.535 µM | 0.242 | 1.47 µM and 0.786 µM | 0.179 | 0.199 µM and 0.422 µM | 0.247 | 0.481 µM and 1.02 µM |  | 0.56 µM and 1.02 µM | 0.0646 | 0.14 µM and 0.348 µM | 0.163 | 0.413 µM and 1.03 µM | 0.239 | 1.18 µM and 0.616 µM | 0.135 | 2.01 µM and 0.279 µM | 0.206 | 3.86 µM and 1.02 µM
CCn1cc(/C=C2\Oc3cc(OCC#N)ccc3C2=O)c2cc(OC)ccc21 | 0.847 | > 100 µM | 0.267 | > 28.8 µM |  | > 70.7 µM | 1.47 | > 77.3 µM | 0.218 | 53.8 µM | 0.214 | > 72.5 µM | 0.221 | 20.7 µM | 0.113 | 0.818 µM | 0.204 | 4.17 µM | 0.385 | > 69.2 µM
O=[N+]([O-])c1cc([As](Br)c2ccc(O)c([N+](=O)[O-])c2)ccc1O |  | 3.77 µM |  | 5.93 µM |  | 2.38 µM |  | 3.11 µM |  | 3.64 µM |  | 1.28 µM |  | 3.61 µM |  | 3.93 µM |  | 3.1 µM |  | 3.72 µM
CCOC(=O)c1sc(-c2ccc(OS(=O)(=O)C[C@]34CCC(CC3=O)C4(C)C)c(C=O)c2)nc1C | 1.3 | 3.71 µM | 1.32 | 4.23 µM | 1.08 | 2.65 µM | 1.03 | 2.66 µM | 1.4 | > 50 µM | 0.822 | 3.19 µM | 1.16 | 2.85 µM | 0.908 | 1.85 µM | 0.877 | 1.59 µM | 0.898 | 2.15 µM
COc1ccc(-c2c(C#N)c(N)nc(N3CCOCC3)c2C#N)cc1 | 20.2 | > 100 µM | 17.5 | 64.4 µM | 11.7 | 54.7 µM | 11 | 35.1 µM | 17.6 | 67.3 µM | 16.1 | 58.7 µM | 15 | 50.1 µM | 32.1 | > 100 µM | 19.1 | 45.9 µM | 21.8 | > 100 µM
Clc1ccc(/C=C/c2ccc3ccccc3n2)cc1 | 4.82 | > 100 µM | 0.617 | 10.5 µM | 0.934 | 71.8 µM | 2.3 | > 100 µM | 1.74 | > 100 µM | 0.482 | 18.6 µM | 1.2 | 6.8 µM | 0.428 | 13.8 µM | 0.551 | > 100 µM | 1.56 | > 100 µM
COc1ccc2c(c1)C(=O)/C(=C/c1cccc(OCC(=O)Nc3nc(C)c(C)s3)c1)O2 | 0.139 | 0.779 µM | 2.94 |  | 0.322 | 1.03 µM | 0.121 | 0.738 µM | 0.0417 | 0.226 µM | 0.104 | 0.587 µM | 12.7 | 26.3 µM | 0.052 | 0.0965 µM | 0.886 | 2.81 µM | 12.2 | 25.7 µM
COc1cc([C@@H]2c3cc4c(cc3[C@H](OC(C)=O)[C@H]3COC(=O)[C@@H]23)OCO4)cc(OC)c1OC | 0.766 | > 100 µM | 0.253 | 0.682 µM |  | > 100 µM | 0.388 | 3.44 µM | 0.318 | > 100 µM | 0.445 | > 100 µM | 0.296 | > 100 µM | 0.216 | 0.526 µM | 0.298 | 1.24 µM | 0.393 | > 100 µM
CSc1ncnc2c1ncn2CC(=O)C1CCC2C3CCC4=CC(=O)CCC4(C)C3CCC12C (configuration not stated) |  | 23.8 µM |  | > 100 µM |  | 31.7 µM |  | 27.7 µM |  | 9.71 µM |  | 5.21 µM |  | 23.7 µM |  | 44.7 µM |  | 5.15 µM |  | > 100 µM
CC(=O)c1cccc(NC(=O)C(=O)c2c(O)c3ccccc3oc2=O)c1 |  | > 100 µM |  | > 100 µM |  | > 100 µM |  | > 100 µM |  | > 100 µM |  | > 100 µM |  | > 100 µM |  | > 100 µM |  | > 100 µM |  | > 100 µM
c1ccc(-c2nc3n(c2-c2ccc4c(c2)OCO4)CCC3)nc1 | 0.993 | > 25 µM | 8.24 | > 25 µM | 8.19 | > 23.4 µM | 4.25 | > 25 µM | 6.75 | > 25 µM | 9.88 | > 25 µM | 4.8 | 24.5 µM | 6.38 | 21.6 µM | 2.05 | 8.86 µM | 8.74 | > 25 µM
O=C(NN1C(=O)CSC1c1cccc(Cl)c1)C(O)c1ccccc1 (configuration not stated) | 67.4 | > 100 µM | > 100 | > 100 µM | > 100 | > 100 µM | 87.7 | > 100 µM | 60.6 | > 100 µM | 23.1 | > 100 µM | 22.4 | > 100 µM | > 100 | > 100 µM | > 100 | > 100 µM | > 100 | > 100 µM
